Measurements published in patent US12281225B2, “Process for preparing stable polymers containing vinylimidazole” (BASF SE, priority 2018, dated 2025).

What was measured:
[1] = test system: Yeast: Candida albicans, Candida valida, Rhodotorula rura, Saccharomyces cerevisiae; test: Preservation test with periodic inoculation, yeast assessment; format: cell-based; conditions: for Start sample measurement, yeast assess., 4th inoculation: freshly formulated; for 60 d 40° C., yeast assess., 4th inoculation: sample stored 60 d at 40° C.
Summary of the method: (§1)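 Semiquantitative growth scores (−− no growth to ++ strong growth) from weekly agar streaks incubated 3 days at 25 °C. Preserved polymer samples got four weekly 0.5 ml inoculations (titer 10^9 organisms/ml), the first two days after preservative addition; testing began fresh and after 60-day storage at 40 °C.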

[2] = Iodine color number according to DIN 6162:2014-09; format: physicochemical
[3] = test system: Bacteria: Escherichia coli, Staphylococcus aureus, Pseudomonas aeruginosa, Pseudomonas putida, Burkholderia cepacia, Alcaligenes faecalis; test: Preservation test with periodic inoculation, bacteria assessment; format: cell-based; conditions: sample stored 60 d at 40° C.
Summary of the method: as §1

[4] = Analysis of active substance: preservative concentration before and after storage in VI-containing polymer solution; format: physicochemical; conditions: for active-substance concentration, 0 d, RT: before storage; for active-substance concentration, 14 d, 40° C.: storage 14 d at 40° C.; for active-substance concentration, 28 d, 40° C.: storage 28 d at 40° C.; for active-substance concentration, 60 d 40° C.: storage 60 d at 40° C.
Summary of the method: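 Preservatives (MIT, BIT, CMIT, OIT, DCOIT, iodopropynyl butyl carbamate) in aqueous vinylpyrrolidone–vinylimidazole copolymer solution quantified after dilution by isocratic RP18 chromatography with UV detection, using an acid-methanol eluent.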

[5] = Polymer P5 (HP56) with stabilizer

Cn1sc(Cl)cc1=O [CMIT, 5-chloro-N-methylisothiazolin-3-one]
Start sample measurement, yeast assess., 4th inoculation ([1]; Polymer P1): − (slight growth, max. 100 colonies)
60 d 40° C., yeast assess., 4th inoculation ([1]; Polymer P1): +
Start sample measurement, yeast assess., 4th inoculation ([1]; Polymer P2): − (slight growth, max. 100 colonies)
60 d 40° C., yeast assess., 4th inoculation ([1]; Polymer P2): +
Start sample measurement, yeast assess., 4th inoculation ([1]; Polymer P3): − (slight growth, max. 100 colonies)
60 d 40° C., yeast assess., 4th inoculation ([1]; Polymer P3): ++
Start sample measurement, yeast assess., 4th inoculation ([1]; Polymer P4): − (slight growth, max. 100 colonies)
60 d 40° C., yeast assess., 4th inoculation ([1]; Polymer P4): +
Start sample measurement, yeast assess., 4th inoculation ([1]; Polymer P5 (HP56)): − (slight growth, max. 100 colonies)
60 d 40° C., yeast assess., 4th inoculation ([1]; Polymer P5 (HP56)): ++
Start sample measurement, yeast assess., 4th inoculation ([1]; Polymer P6): − (slight growth, max. 100 colonies)
60 d 40° C., yeast assess., 4th inoculation ([1]; Polymer P6): +
Start sample measurement, yeast assess., 4th inoculation ([1]; Polymer P7): − (slight growth, max. 100 colonies)
60 d 40° C., yeast assess., 4th inoculation ([1]; Polymer P7): ++
Start sample measurement, yeast assess., 4th inoculation ([1]; Polymer P8): − (slight growth, max. 100 colonies)
60 d 40° C., yeast assess., 4th inoculation ([1]; Polymer P8): 0 (moderate growth, max. 400 colonies)
Start sample measurement, yeast assess., 4th inoculation ([1]; Polymer P9): − (slight growth, max. 100 colonies)
60 d 40° C., yeast assess., 4th inoculation ([1]; Polymer P9): ++
Iodine color number, 60 d 40° C. ([2]; Polymer P1 with stabilizer): 6.2
Iodine color number, start ([2]; Polymer P1 with stabilizer): 2.5
Iodine color number, 60 d 40° C. ([2]; Polymer P2 with stabilizer): 8.6
Iodine color number, start ([2]; Polymer P2 with stabilizer): 3.1
Iodine color number, 60 d 40° C. ([2]; Polymer P3 with stabilizer): 8.5
Iodine color number, start ([2]; Polymer P3 with stabilizer): 3.2
Iodine color number, 60 d 40° C. ([2]; Polymer P4 with stabilizer): 8.9
Iodine color number, start ([2]; Polymer P4 with stabilizer): 3.2
Iodine color number, 60 d 40° C. [2, 5]: 9.0
Iodine color number, start [2, 5]: 3.5
Iodine color number, 60 d 40° C. ([2]; Polymer P6 with stabilizer): 9.1
Iodine color number, start ([2]; Polymer P6 with stabilizer): 3.5
Iodine color number, 60 d 40° C. ([2]; Polymer P7 with stabilizer): 9.1
Iodine color number, start ([2]; Polymer P7 with stabilizer): 3.5
Iodine color number, 60 d 40° C. ([2]; Polymer P8 with stabilizer): 9.3
Iodine color number, start ([2]; Polymer P8 with stabilizer): 3.3
Iodine color number, 60 d 40° C. ([2]; Polymer P9 with stabilizer): 13.9
Iodine color number, start ([2]; Polymer P9 with stabilizer): 3.9
60 d 40° C., bact. assess., 4th inoculation ([3]; Polymer P1): 0 (moderate growth, max. 400 colonies)
60 d 40° C., bact. assess., 4th inoculation ([3]; Polymer P2): +
60 d 40° C., bact. assess., 4th inoculation ([3]; Polymer P3): +
60 d 40° C., bact. assess., 4th inoculation ([3]; Polymer P4): +
60 d 40° C., bact. assess., 4th inoculation ([3]; Polymer P5 (HP56)): +
60 d 40° C., bact. assess., 4th inoculation ([3]; Polymer P6): +
60 d 40° C., bact. assess., 4th inoculation ([3]; Polymer P7): +
60 d 40° C., bact. assess., 4th inoculation ([3]; Polymer P8): 0 (moderate growth, max. 400 colonies)
60 d 40° C., bact. assess., 4th inoculation ([3]; Polymer P9): ++
active-substance concentration, 0 d, RT ([4]; in Polymer P1): 150 ppm
active-substance concentration, 14 d, 40° C. ([4]; in Polymer P1): 94 ppm
active-substance concentration, 28 d, 40° C. ([4]; in Polymer P1): 81 ppm
active-substance concentration, 60 d 40° C. ([4]; in Polymer P1): 59 ppm
active-substance concentration, 0 d, RT ([4]; in Polymer P2): 150 ppm
active-substance concentration, 14 d, 40° C. ([4]; in Polymer P2): 108 ppm
active-substance concentration, 28 d, 40° C. ([4]; in Polymer P2): 89 ppm
active-substance concentration, 60 d 40° C. ([4]; in Polymer P2): 66 ppm
active-substance concentration, 0 d, RT ([4]; in Polymer P3): 150 ppm
active-substance concentration, 14 d, 40° C. ([4]; in Polymer P3): 117 ppm
active-substance concentration, 28 d, 40° C. ([4]; in Polymer P3): 93 ppm
active-substance concentration, 60 d 40° C. ([4]; in Polymer P3): 77 ppm
active-substance concentration, 0 d, RT ([4]; in Polymer P4): 150 ppm
active-substance concentration, 14 d, 40° C. ([4]; in Polymer P4): 111 ppm
active-substance concentration, 28 d, 40° C. ([4]; in Polymer P4): 89 ppm
active-substance concentration, 60 d 40° C. ([4]; in Polymer P4): 73 ppm
active-substance concentration, 0 d, RT ([4]; in Polymer P5 (HP56)): 150 ppm
active-substance concentration, 14 d, 40° C. ([4]; in Polymer P5 (HP56)): 94 ppm
active-substance concentration, 28 d, 40° C. ([4]; in Polymer P5 (HP56)): 81 ppm
active-substance concentration, 60 d 40° C. ([4]; in Polymer P5 (HP56)): 59 ppm
active-substance concentration, 0 d, RT ([4]; in Polymer P6): 150 ppm
active-substance concentration, 14 d, 40° C. ([4]; in Polymer P6): 91 ppm
active-substance concentration, 28 d, 40° C. ([4]; in Polymer P6): 76 ppm
active-substance concentration, 60 d 40° C. ([4]; in Polymer P6): 55 ppm
active-substance concentration, 0 d, RT ([4]; in Polymer P7): 150 ppm
active-substance concentration, 14 d, 40° C. ([4]; in Polymer P7): 96 ppm
active-substance concentration, 28 d, 40° C. ([4]; in Polymer P7): 80 ppm
active-substance concentration, 60 d 40° C. ([4]; in Polymer P7): 64 ppm
active-substance concentration, 0 d, RT ([4]; in Polymer P8): 150 ppm
active-substance concentration, 14 d, 40° C. ([4]; in Polymer P8): 94 ppm
active-substance concentration, 28 d, 40° C. ([4]; in Polymer P8): 81 ppm
active-substance concentration, 60 d 40° C. ([4]; in Polymer P8): 59 ppm
active-substance concentration, 0 d, RT ([4]; in Polymer P9): 150 ppm
active-substance concentration, 14 d, 40° C. ([4]; in Polymer P9): 82 ppm
active-substance concentration, 28 d, 40° C. ([4]; in Polymer P9): 70 ppm
active-substance concentration, 60 d 40° C. ([4]; in Polymer P9): 51 ppm
